# Measurements published in ChEMBL document CHEMBL1800064, “Biaryl ethers as potent allosteric inhibitors of reverse transcriptase and its key mutant viruses: aryl substituted pyrazole as a surrogate for the pyrazolopyridine motif” (Bioorg Med Chem Lett, 2010).
# What was measured:
# [1] = test system: Human immunodeficiency virus 1; assay: Antiviral activity against HIV1 isolate NL4-3 harboring reverse transcriptase G190A mutant assessed as inhibition of viral replication by phenoscreen assay in presence of 40% normal human serum; type: functional, organism-based; conditions: Human immunodeficiency virus 1, isolate NL4-3
# [2] = test system: Human immunodeficiency virus 1; assay: Antiviral activity against HIV1 isolate NL4-3 harboring reverse transcriptase G190S mutant assessed as inhibition of viral replication by phenoscreen assay in presence of 40% normal human serum; type: functional, organism-based; conditions: Human immunodeficiency virus 1, isolate NL4-3
# [3] = test system: Human immunodeficiency virus 1; assay: Antiviral activity against HIV1 isolate NL4-3 harboring reverse transcriptase K103N/V179E double mutant assessed as inhibition of viral replication by phenoscreen assay in presence of 40% normal human serum; type: functional, organism-based; conditions: Human immunodeficiency virus 1, isolate NL4-3
# [4] = test system: Human immunodeficiency virus 1; assay: Antiviral activity against HIV1 isolate NL4-3 harboring reverse transcriptase K103N/Y181C double mutant assessed as inhibition of viral replication by phenoscreen assay in presence of 40% normal human serum; type: functional, organism-based; conditions: Human immunodeficiency virus 1, isolate NL4-3
# [5] = test system: Human immunodeficiency virus 1; assay: Antiviral activity against HIV1 isolate NL4-3 harboring reverse transcriptase K103N/G190A double mutant assessed as inhibition of viral replication by phenoscreen assay in presence of 40% normal human serum; type: functional, organism-based; conditions: Human immunodeficiency virus 1, isolate NL4-3
# [6] = test system: Human immunodeficiency virus 1; assay: Antiviral activity against HIV1 isolate NL4-3 harboring reverse transcriptase Y181C/G190A double mutant assessed as inhibition of viral replication by phenoscreen assay in presence of 40% normal human serum; type: functional, organism-based; conditions: Human immunodeficiency virus 1, isolate NL4-3
# [7] = test system: Human immunodeficiency virus 1; assay: Antiviral activity against HIV1 isolate NL4-3 harboring reverse transcriptase K103N/P225H double mutant assessed as inhibition of viral replication by phenoscreen assay in presence of 40% normal human serum; type: functional, organism-based; conditions: Human immunodeficiency virus 1, isolate NL4-3
# [8] = test system: Human immunodeficiency virus 1; assay: Antiviral activity against HIV1 isolate NL4-3 harboring reverse transcriptase K101E/G190A double mutant assessed as inhibition of viral replication by phenoscreen assay in presence of 40% normal human serum; type: functional, organism-based; conditions: Human immunodeficiency virus 1, isolate NL4-3
# [9] = test system: Human immunodeficiency virus 1; assay: Antiviral activity against HIV1 isolate NL4-3 harboring reverse transcriptase K101E/Y181C/G190A mutant assessed as inhibition of viral replication by phenoscreen assay in presence of 40% normal human serum; type: functional, organism-based; conditions: Human immunodeficiency virus 1, isolate NL4-3
# [10] = test system: Human immunodeficiency virus 1; assay: Antiviral activity against HIV1 isolate NL4-3 harboring reverse transcriptase K103N/Y181C/G190A mutant assessed as inhibition of viral replication by phenoscreen assay in presence of 40% normal human serum; type: functional, organism-based; conditions: Human immunodeficiency virus 1, isolate NL4-3
# [11] = test system: Human immunodeficiency virus 1; assay: Antiviral activity against HIV1 isolate NL4-3 harboring reverse transcriptase V106A/G190A/F227L mutant assessed as inhibition of viral replication by phenoscreen assay in presence of 40% normal human serum; type: functional, organism-based; conditions: Human immunodeficiency virus 1, isolate NL4-3
# [12] = test system: Human immunodeficiency virus 1; assay: Ratio IC50 for HIV1 isolate NL4-3 harboring reverse transcriptase L100I mutant to IC50 for HIV1 isolate NL4-3 harboring wild type reverse transcriptase by phenoscreen assay in presence of 40% normal human serum; type: functional
# [13] = test system: Human immunodeficiency virus 1; assay: Ratio IC50 for HIV1 isolate NL4-3 harboring reverse transcriptase K103N mutant to IC50 for HIV1 isolate NL4-3 harboring wild type reverse transcriptase by phenoscreen assay in presence of 40% normal human serum; type: functional
# [14] = test system: Human immunodeficiency virus 1; assay: Ratio IC50 for HIV1 isolate NL4-3 harboring reverse transcriptase Y181C mutant to IC50 for HIV1 isolate NL4-3 harboring wild type reverse transcriptase by phenoscreen assay in presence of 40% normal human serum; type: functional
# [15] = test system: Human immunodeficiency virus 1; assay: Ratio IC50 for HIV1 isolate NL4-3 harboring reverse transcriptase Y188L mutant to IC50 for HIV1 isolate NL4-3 harboring wild type reverse transcriptase by phenoscreen assay in presence of 40% normal human serum; type: functional
# [16] = test system: Human immunodeficiency virus 1; assay: Ratio IC50 for HIV1 isolate NL4-3 harboring reverse transcriptase G190A mutant to IC50 for HIV1 isolate NL4-3 harboring wild type reverse transcriptase by phenoscreen assay in presence of 40% normal human serum; type: functional
# [17] = test system: Human immunodeficiency virus 1; assay: Ratio IC50 for HIV1 isolate NL4-3 harboring reverse transcriptase G190S mutant to IC50 for HIV1 isolate NL4-3 harboring wild type reverse transcriptase by phenoscreen assay in presence of 40% normal human serum; type: functional
# [18] = test system: Human immunodeficiency virus 1; assay: Ratio IC50 for HIV1 isolate NL4-3 harboring reverse transcriptase K103N/V179E double mutant to IC50 for HIV1 isolate NL4-3 harboring wild type reverse transcriptase by phenoscreen assay in presence of 40% normal human serum; type: functional
# [19] = test system: Human immunodeficiency virus 1; assay: Ratio IC50 for HIV1 isolate NL4-3 harboring reverse transcriptase K103N/Y181C double mutant to IC50 for HIV1 isolate NL4-3 harboring wild type reverse transcriptase by phenoscreen assay in presence of 40% normal human serum; type: functional
# [20] = test system: Human immunodeficiency virus 1; assay: Ratio IC50 for HIV1 isolate NL4-3 harboring reverse transcriptase K103N/G190A double mutant to IC50 for wild type HIV1 isolate NL4-3 harboring reverse transcriptase by phenoscreen assay in presence of 40% normal human serum; type: functional
# [21] = test system: Human immunodeficiency virus 1; assay: Ratio IC50 for HIV1 isolate NL4-3 harboring reverse transcriptase Y181C/G190A double mutant to IC50 for HIV1 isolate NL4-3 harboring wild type reverse transcriptase by phenoscreen assay in presence of 40% normal human serum; type: functional
# [22] = test system: Human immunodeficiency virus 1; assay: Ratio IC50 for HIV1 isolate NL4-3 harboring reverse transcriptase K103N/P225H double mutant to IC50 for HIV1 isolate NL4-3 harboring wild type reverse transcriptase by phenoscreen assay in presence of 40% normal human serum; type: functional
# [23] = test system: Human immunodeficiency virus 1; assay: Ratio IC50 for HIV1 isolate NL4-3 harboring reverse transcriptase K101E/G190A double mutant to IC50 for HIV1 isolate NL4-3 harboring wild type reverse transcriptase by phenoscreen assay in presence of 40% normal human serum; type: functional
# [24] = test system: Human immunodeficiency virus 1; assay: Ratio IC50 for HIV1 isolate NL4-3 harboring reverse transcriptase K101E/Y181C/G190A mutant to IC50 for HIV1 isolate NL4-3 harboring wild type reverse transcriptase by phenoscreen assay in presence of 40% normal human serum; type: functional
# [25] = test system: Human immunodeficiency virus 1; assay: Ratio IC50 for HIV1 isolate NL4-3 harboring reverse transcriptase K103N/Y181C/G190A mutant to IC50 for HIV1 isolate NL4-3 harboring wild type reverse transcriptase by phenoscreen assay in presence of 40% normal human serum; type: functional
# [26] = test system: Human immunodeficiency virus 1; assay: Ratio IC50 for HIV1 isolate NL4-3 harboring reverse transcriptase V106A/G190A/F227L mutant to IC50 for HIV1 isolate NL4-3 harboring wild type reverse transcriptase by phenoscreen assay in presence of 40% normal human serum; type: functional
# [27] = test system: Human immunodeficiency virus 1; assay: Antiviral activity against HIV1 R8 harboring wild type reverse transcriptase infected in human MT4 cells assessed as inhibition of viral spread in presence of 10% fetal bovine serum; type: functional; conditions: Human immunodeficiency virus 1, R8, MT4; read-out: CIC95
# [28] = biological target: Human immunodeficiency virus type 1 reverse transcriptase (Human immunodeficiency virus 1, UniProt Q72547); assay: Inhibition of wild type HIV1 reverse transcriptase by SPA assay
# [29] = biological target: Human immunodeficiency virus type 1 reverse transcriptase (Human immunodeficiency virus 1, UniProt Q72547, K103N); assay: Inhibition of HIV1 reverse transcriptase K103N mutant by SPA assay
# [30] = biological target: Human immunodeficiency virus type 1 reverse transcriptase (Human immunodeficiency virus 1, UniProt Q72547, Y181C); assay: Inhibition of HIV1 reverse transcriptase Y181C mutant by SPA assay
# [31] = test system: Human immunodeficiency virus 1; assay: Antiviral activity against HIV1 isolate NL4-3 harboring wild type reverse transcriptase assessed as inhibition of viral replication by phenoscreen assay in presence of 40% normal human serum; type: functional, organism-based; conditions: Human immunodeficiency virus 1, isolate NL4-3
# [32] = test system: Human immunodeficiency virus 1; assay: Antiviral activity against HIV1 R8 harboring reverse transcriptase infected in human MT4 cells assessed as inhibition of viral spread in presence of 50% normal human serum; type: functional; conditions: Human immunodeficiency virus 1, R8, MT4; read-out: CIC95
# [33] = test system: Human immunodeficiency virus 1; assay: Antiviral activity against HIV1 R8 harboring reverse transcriptase K103N mutant infected in human MT4 cells assessed as inhibition of viral spread in presence of 10% fetal bovine serum; type: functional; conditions: Human immunodeficiency virus 1, R8, MT4; read-out: CIC95
# [34] = test system: Human immunodeficiency virus 1; assay: Antiviral activity against HIV1 R8 harboring reverse transcriptase Y181C mutant infected in human MT4 cells assessed as inhibition of viral spread in presence of 10% fetal bovine serum; type: functional; conditions: Human immunodeficiency virus 1, R8, MT4; read-out: CIC95
# [35] = test system: Human immunodeficiency virus 1; assay: Antiviral activity against HIV1 isolate NL4-3 harboring reverse transcriptase L100I mutant assessed as inhibition of viral replication by phenoscreen assay in presence of 40% normal human serum; type: functional, organism-based; conditions: Human immunodeficiency virus 1, isolate NL4-3
# [36] = test system: Human immunodeficiency virus 1; assay: Antiviral activity against HIV1 isolate NL4-3 harboring reverse transcriptase K103N mutant assessed as inhibition of viral replication by phenoscreen assay in presence of 40% normal human serum; type: functional, organism-based; conditions: Human immunodeficiency virus 1, isolate NL4-3
# [37] = test system: Human immunodeficiency virus 1; assay: Antiviral activity against HIV1 isolate NL4-3 harboring reverse transcriptase Y181C mutant assessed as inhibition of viral replication by phenoscreen assay in presence of 40% normal human serum; type: functional, organism-based; conditions: Human immunodeficiency virus 1, isolate NL4-3
# [38] = test system: Human immunodeficiency virus 1; assay: Antiviral activity against HIV1 isolate NL4-3 harboring reverse transcriptase Y188L mutant assessed as inhibition of viral replication by phenoscreen assay in presence of 40% normal human serum; type: functional, organism-based; conditions: Human immunodeficiency virus 1, isolate NL4-3
structure (smiles),measurement,setting,value
N#Cc1cc(Cl)cc(Oc2cc(OCc3cc(-c4ccncc4)[nH]n3)ccc2Cl)c1,IC50,[1],22.3 nM
same,IC50,[2],161 nM
same,IC50,[3],90.2 nM
same,IC50,[4],> 1000 nM
same,IC50,[5],120 nM
same,IC50,[6],131 nM
same,IC50,[7],32.4 nM
same,IC50,[8],118 nM
same,IC50,[9],332 nM
same,IC50,[10],> 1000 nM
same,IC50,[11],> 1000 nM
same,Ratio IC50,[12],4.9
same,Ratio IC50,[13],4.4
same,Ratio IC50,[14],8
same,Ratio IC50,[15],>222
same,Ratio IC50,[16],5
same,Ratio IC50,[17],35.7
same,Ratio IC50,[18],20
same,Ratio IC50,[19],>222
same,Ratio IC50,[20],26.6
same,Ratio IC50,[21],29.1
same,Ratio IC50,[22],7.2
same,Ratio IC50,[23],26.2
same,Ratio IC50,[24],73.7
same,Ratio IC50,[25],>222
same,Ratio IC50,[26],>222
same,IC95,[27],0.025 µM
same,Ki,[28],0.7 nM
same,Ki,[29],4.2 nM
same,Ki,[30],4.6 nM
same,IC50,[31],4.5 nM
same,IC95,[32],0.102 µM
same,IC95,[33],0.102 µM
same,IC95,[34],0.278 µM
same,IC50,[35],21.9 nM
same,IC50,[36],19.7 nM
same,IC50,[37],36.2 nM
same,IC50,[38],> 1000 nM
